Results taken from US11028090B2 (Dong Wha Pharm. Co., Ltd., priority 2017, dated 2021).
Like-named read-outs stand apart in the source and are kept apart here.

Assays:
[1] = tested on: acute myelogenous leukemia cells (MV-4-11 cells); experiment: Cytotoxicity to acute myelogenous leukemia cells (MV-4-11 cells), CCK-8; settings: Homo sapiens, MV4-11, 72 h
[2] = biological target: BRD4 (BD1+BD2) bromodomain (Homo sapiens (Human), UniProt O60885); experiment: BRD4 binding inhibition (AlphaScreen, GST-BRD4 vs tetraacetylated histone H4 peptide)
How it was run: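 AlphaScreen read after 30 min dark incubation at room temperature with glutathione acceptor/streptavidin donor beads (10 μg/ml each). The beads were added to compound plus 100 nM biotin-H4 (K5,8,12,16-acetyl) peptide and 100 nM GST-BRD4 BD1+BD2 in pH 7.4 HEPES/Tween/BSA/DTT buffer.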

[3] = read-out: IC50, cytotoxicity against acute myelogenous leukemia cells
[4] = read-out: MV-4-11 Cytotoxicity IC50
[5] = GST-BRD4 (BD1+BD2) / biotinylated acetyl-histone H4 (Lys5,8,12,16) peptide, read-out: IC50, BRD4 binding inhibition
[6] = GST-BRD4 (BD1+BD2) vs biotinylated acetyl-histone H4 peptide, AlphaScreen, read-out: BRD4 IC50

SMILES | IC50 [2, 5] [nM] | IC50 [2, 6] [nM] | IC50 [1, 3] [nM] | IC50 [1, 4] [nM]
COc1cc2nc(NCCCCNC(=O)CCC3CCCC3)c3nnc(C)n3c2cc1OC [Example 81, 3-cyclopentyl-N-[4-(7,8-dimethoxy-1-methyl-[1,2,4]triazolo[4,3-a]quinoxaline-4-ylamino)-butyl]-propionamide] | ≤ 10 | 10 | ≤ 200 | 100
COc1cc2nc(NCCCCNC(=O)[C@@H](O)C(C)C)c3nnc(C)n3c2cc1OC [Example 83, N-[4-(7,8-dimethoxy-1-methyl-[1,2,4]triazolo[4,3-a]quinoxaline-4-ylamino)-butyl]-2-(S)-hydroxy-3-methyl-butyramide] | ≤ 10 | 2 |  | 211
COc1cc2nc(NCCCCNC(=O)Cc3ccco3)c3nnc(C)n3c2cc1OC [Example 85, N-[4-(7,8-dimethoxy-1-methyl-[1,2,4]triazolo[4,3-a]quinoxaline-4-ylamino)-butyl]-2-furan-2-yl-acetamide] | ≤ 50 | 27 | ≤ 200 | 50
COc1cc2nc(NCCCCNC(=O)Cc3ccccc3)c3nnc(C)n3c2cc1OC [Example 86, N-[4-(7,8-dimethoxy-1-methyl-[1,2,4]triazolo[4,3-a]quinoxaline-4-ylamino)-butyl]-2-phenyl-acetamide] | ≤ 50 | 17 | ≤ 200 | 60
COc1cc2nc(NCCCCNC(=O)c3ccc(C(C)(C)C)cc3)c3nnc(C)n3c2cc1OC [Example 96, 4-tert-butyl-N-[4-(7,8-dimethoxy-1-methyl-[1,2,4]triazolo[4,3-a]quinoxaline-4-ylamino)-butyl]-benzamide] | ≤ 50 |  |  | 630
COc1cc2nc(NCCCCNC(=O)c3ccc(F)cc3)c3nnc(C)n3c2cc1OC [Example 98, N-[4-(7,8-dimethoxy-1-methyl-[1,2,4]triazolo[4,3-a]quinoxaline-4-ylamino)-butyl]-4-fluoro-benzamide] | ≤ 50 | 47 |  | 830
COc1cc2nc(NCCCCNC(=O)c3ccccn3)c3nnc(C)n3c2cc1OC [Example 105, pyridine-2-carboxylic acid-[4-(7,8-dimethoxy-1-methyl-[1,2,4]triazolo[4,3-a]quinoxaline-4-ylamino)-butyl]-amide] |  | 60 |  | 650

Further lines, with some results ahead:

IC50 [2, 5] [nM] | IC50 [2, 6] [nM] | SMILES | IC50 [1, 3] [nM] | IC50 [1, 4] [nM]
≤ 50 | 20 | CCC(CC)C(=O)NCCCCNc1nc2cc(OC)c(OC)cc2n2c(C)nnc12 [Example 78, N-[4-(7,8-dimethoxy-1-methyl-[1,2,4]triazolo[4,3-a]quinoxaline-4-ylamino)-butyl]-2-ethyl-butyramide] | ≤ 200 | 140
≤ 10 | 5 | COc1cc2nc(NCCCCNC(=O)CCC(C)C)c3nnc(C)n3c2cc1OC [Example 79, 4-methyl-pentanoic acid [4-(7,8-dimethoxy-1-methyl-[1,2,4]triazolo[4,3-a]quinoxaline-4-ylamino)-butyl]-amide] | ≤ 200 | 70
≤ 50 | 36 | COc1cc2nc(NCCCCNC(=O)c3ccccc3)c3nnc(C)n3c2cc1OC [Example 95, N-[4-(7,8-dimethoxy-1-methyl-[1,2,4]triazolo[4,3-a]quinoxaline-4-ylamino)-butyl]-benzamide] |  | 590
≤ 50 |  | COc1cc2nc(NCCCCNC(=O)c3ccccc3OC)c3nnc(C)n3c2cc1OC [Example 97, N-[4-(7,8-dimethoxy-1-methyl-[1,2,4]triazolo[4,3-a]quinoxaline-4-ylamino)-butyl]-2-methoxy-benzamide] |  | 510
≤ 50 | 28 | COc1cc2nc(NCCCCNC(=O)c3ccccc3F)c3nnc(C)n3c2cc1OC [Example 106, N-[4-(7,8-dimethoxy-1-methyl-[1,2,4]triazolo[4,3-a]quinoxaline-4-ylamino)-butyl]-2-fluoro-benzamide] |  | 310
